Experimental data: US20080269338A1, “AQUEOUS SOLUTIONS CONTAINING CHLORAMINE WHICH ARE FREE FROM DI-AND TRICHLOROAMINE, AS WELL AS FROM AMMONIA” (priority 2007, published 2008)
Read-outs that look alike come from different tables or passages of the source.

Tests used:
[1] = Stability of active chlorine compound with ammonium salt in water (pH, oxidation capacity); format: physicochemical
[2] = human eye (Nagl et al.); cited from earlier work
[3] = rabbit eye (Nagl et al.); cited from earlier work
[4] = Example 5: penetration through the human cornea (diffusion chamber); conditions: room temperature
Protocol: A human cornea was clamped in a specially designed chamber. The upper compartment was filled with the disinfectant, while the lower one contained the buffer solution. The system was equilibrated for 2, 4, and 6 hours at room temperature, and afterwards the oxidation capacity was determined in the buffer solution of the lower compartment.

[5] = Example 2: stability of a pure monochloramine solution (UV spectrum); format: physicochemical; conditions: three days storage in the refrigerator at 0-3° C.
Protocol: A solution of 1 g each of N-chlorotaurine and ammonium chloride in 100 mL water was distilled in a rotavapor (water stream vacuum, water bath temperature 50° C.). The distillate contained, according to the UV spectrum, […] pure monochloramine (NH2Cl, absorption band at λmax=244 nm, A244=0.9812, d=0.1 cm, ε244=461.6 L mol^−1 cm^−1). After three days storage in the refrigerator at 0-3° C., the band at 244 disappeared, while two bands at 203 nm (A=1.146) and 294 nm (A0 0.148) appeared which are characteristic for the chromophor —NCl2. Gottardi et al., supra.

[6] = system: bacteria; experiment: Killing tests, bacterial strains in general; format: cell-based; conditions: preliminary experiments, without NCT
Protocol: Microbicidal activity. […] The impact of ammonium chloride on the microbicidal activity of NCT could be confirmed in several bacterial strains (FIG. 4).
Bacterial strains, Staphylococcus aureus ATCC 25923 and 6538, Staphylococcus epidermidis ATCC 12228, Escherichia coli ATCC 11229, Proteus mirabilis ATCC 14153, Pseudomonas aeruginosa ATCC 27853, and a clinical isolate of […] deep-frozen for storage were grown overnight on tryptic soy agar (Merck, Darmstadt, Germany). Colonies from this agar were grown in tryptic soy broth (Merck, Darmstadt, Germany) at 37° C. overnight and washed twice with saline.
Killing tests. Bacteria were diluted in buffered test solution to concentrations of 1×10^6 to 5×10^7 CFU/mL. Immediately and subsequent to different incubation times at room temperature, aliquots were removed, and NCT with or without ammonium chloride or plain monochloramine was inactivated by 10-fold dilution in 0.3% sodium thiosulfate. Aliquots (50 μL) of these solutions as well as of 100-fold further dilutions in saline were spread onto tryptic soy agar plates with an automatic spiral plater (Don Whitley Scientific Limited, West Yorkshire, UK) in duplicates allowing a detection limit of 200 CFU/mL. Plates were grown at 37° C., and CFU were counted after 24 and 48 hours. Controls without NCT were treated the same way.

[7] = with ammonium, 0.1 M phosphate buffer
[8] = with excess ammonium, no buffer

Cc1ccc(S(=O)(=O)NCl)cc1.[Na] [chloramine-T, N-chloro-4-toluenesulfonamide sodium]
Loss of oxidation capacity within 1 hour [1, 7]: 90% | pH within 2 hours [1, 7]: 6.3 | pH, start [1, 7]: 7.0 | pH within 8 minutes [1, 8]: 2.9 | pH, start [1, 8]: 6.8

O=S(=O)(O)CCNCl [NCT, N-chlorotaurine]
Tolerability [2]: good tolerability | Tolerability [3]: good tolerability | Diffused oxidation capacity, from the starting value in the upper compartment ([4]; after 2 hours): 1.3% | Diffused oxidation capacity, from the starting value in the upper compartment ([4]; after 4 hours): 4.8% | Diffused oxidation capacity, from the starting value in the upper compartment ([4]; after 6 hours): 25.4%

NCl [monochloramine]
Conversion of NH2Cl to NHCl2 [5]: complete conversion of NH2Cl to NHCl2

Cl.N [Ammonium chloride]
Influence on viability [6]: no influence on viability

O=c1nc([O-])n(Cl)c(=O)n1Cl.[Na+] [sodium dichloro-isocyanurate]
Behaviour with ammonium compared with chloramine-T [1]: behave in the same manner

[Ca+2].[O-]Cl.[O-]Cl [Calcium hypochlorite]
Behaviour with ammonium compared with chloramine-T [1]: behave in the same manner
